Measurements reported in US7514257B2, “Zinc finger transcription factor differentiation proteins” (ToolGen, Inc., priority 2001, dated 2009).
Values joined by “and” are separate entries in the source; they are usually repeats but may differ in a detail not shown here. Equal values may be shown once.

Columns and labels:
[1] = system: transcripts of human embryonic kidney 293 cells; test: Transcript profiling of 293 cells expressing F121_p65; type: cell-based
Experimental: DNA microarrays containing 7458 human EST clones were obtained from Genomictree (Korea). FlpTRex-293 cells stably expressing ZFP-TFs were grown with (+Dox) or without Dox) 1 μg/ml Doxycycline for 48 hours. Total RNA was prepared from each sample. RNA from the −Dox sample was used as a reference (Cy3), and +Dox as the experimental sample (Cy5). Microarray analysis was performed according to the manufacturer's protocols. Spots with sum of median less than 500 were colored red and not analyzed.
The zinc finger protein F121_p65 was expressed in human embryonic kidney 293 cells. […] F121_p65 increases transcription of insulin-like growth factor 2, among other genes.

SV40-SEAP reporter = SV40-SEAP reporter in 293F cells; type: cell-based, human; details: for SV40-SEAP, average: Vector (HANLS) = 1
Experimental: (§1) Three days after transfection, medium was transferred to the new tubes and heated for 30 minutes at 65° C. to inactivate the endogenous alkaline phosphatase. 25 μl of medium was mixed with the same volume of 2×SEAP assay buffer (2 M Diethanolamine (pH 9.8) 10 ml, 1 M MgCl2 10 μl, 1 M homoarginine 200 μl, pNitro phenyl phosphate 44.52 mg). Absorbance at 405 nm was measured after the indicated incubation times at 37° C.
To investigate this point, an extensive screening had been carried out using the SEAP reporter under the control of CMV promoter (CMV-SEAP) in 293F cells. Two ZFPs, K44—11_D01 and K44—11_G12, that increase activity of the SEAP protein were isolated. These two ZFPs were further tested using two other reporter plasmids, SV40-SEAP and the luciferase reporter under the control of CMV promoter (CMV-Luc). […]. […] Thus, K44—11_G12 may be used increase the production of proteins generally in cells, e.g., eukaryotic cells.

CMV-Luc reporter = CMV-Luc reporter in 293F cells; type: cell-based, human; details: for CMV-Luc, average: Vector (HANLS) = 1
Experimental: For the luciferase assay, 5 ng of both CMV-luciferase and pRL-SV40 plasmid were co-transfected with 50 ng of ZFP coding plasmids to 293 cells seeded in wells of a 96 well plate. After 3 days of incubation, cells were harvested and the luciferase assay was done by a Dual Luciferase reporter assay system (Promega) as recommended by the manufacturer.
(§2) To investigate this point, an extensive screening had been carried out using the SEAP reporter under the control of CMV promoter (CMV-SEAP) in 293F cells. Two ZFPs, K44—11_D01 and K44—11_G12, that increase activity of the SEAP protein were isolated. These two ZFPs were further tested using two other reporter plasmids, SV40-SEAP and the luciferase reporter under the control of CMV promoter (CMV-Luc). […] Thus, K44—11_G12 may be used increase the production of proteins generally in cells, e.g., eukaryotic cells.

CMV-SEAP reporter = CMV-SEAP reporter in 293F cells; type: cell-based, human; details: for CMV-SEAP, average: Vector (HANLS) = 1
Experimental: as §1, §2

[2] = system: mouse neuroblastoma Neuro2a cells; test: Neurite formation in Neuro2A cells; type: cell-based
Experimental: Mouse neuroblastoma Neuro2a cells were maintained in MEM-a media with 10% FBS and antibiotics at 37° C., in a humidified atmosphere containing 95% air and 5% CO2. Cells were seeded at 8.0·10^3 cells per 96-well culture plate and then were transfected using LIPOFECTAMINE PLUS™ reagent (Invitrogen,CA) according to the manufacturer's protocol, with 50 ng of ZFP, together with 20 ng of LacZ reporter plasmid. In vitro differentiation was carried out with or without retinoic acid (RA) (10 μM) respectively, and G418 (1 mg/ml) was treated 24 hours after transfection to reduce the number of untransfected cells. Cells were then cultured for 96 hours and then fixed, stained for β-galactosidase activity, and photographed. Among β-galactosidase-positive cells, cells were regarded as differentiated if the length of neurite extension was at least two times the diameter of the cell body.
To screen for ZFP-TFs that can induce neuronal differentiation, Neuro2A cells were transiently transfected with library plasmids and a reporter plasmid that includes the LacZ gene. LacZ expression was used to visualize the morphology of transfected cells. Because the differentiating cells grow slower than non-differentiating cells and the latter will dominate the cell population, we treated the cell culture with G418 24 hr after transfection to reduce the number of untransfected cells. After five days, cells were fixed and LacZ-stained. We then characterized the cells by their morphological characteristics. In particular, we identified cells with increased neurite length and thickness.

yeast strain YPH499a = test: Ketoconazole resistance of yeast transformants; type: cell-based, Saccharomyces cerevisiae; details: 10^7 cells plated on synthetic media
Experimental: To check the fungistatic response of the tester strain YPH499a to ketoconazole, 10^7 cells of the YPH499a strain were plated onto synthetic media containing different concentrations of the drug.
1×10^7 yeast cells containing plasmids from the 3-finger and 4-finger libraries were cultivated in synthetic liquid medium with 2% galactose for 3 hours at 30° C. to induce zinc finger protein expression and then were plated onto synthetic galactose agar plates containing 35 μM ketoconazole (ICN Biomedicals). After fours days of incubation at 30° C., about 120 clones formed colonies on galactose media containing 35 μM ketoconazole. These ketoconazole resistant yeast colonies were picked and streaked on fresh synthetic galactose agar plates containing 35 μM ketoconazole. 23 clones were randomly selected from the 120 resistant clones. For each of these 23 clones, the resistant phenotype was verified by plasmid rescue. […]
In one experiment, 5×10^4 cells from each transformant were serially diluted (10^−1, 10^−2, and 10^−3 fold) and spotted on galactose or glucose media supplemented without or with 35 μM ketoconazole. Growth of the cells was monitored after four days at 30° C. and compared to controls on the same plate. […]

[3] = system: SV40-SEAP reporter (pSEAP2-control); test: SEAP assay, SV40-SEAP reporter in 293 cells; type: cell-based, human
Experimental: Human embryonic kidney 293 cells were cultured with 100 μl of DMEM with 10% of FBS in a humidified atmosphere containing 95% air and 5% CO2 and seeded in wells of a 96 well plates 1 day ahead of transfection. The plasmids were isolated from individual colonies of each library separately and transfected into 293 cells LIPOFECTAMINE PLUS™ (Invitrogen) as recommended by the manufacturer. For MTT assay, 50 ng of plasmids containing zinc finger protein gene fused to the functional domains were transfected into cells cultured at 5·10^3 cells/well. For the SEAP assay, 10 ng of pSEAP2-control (Clontech) plasmid was co-transfected with 50 ng of plasmids containing zinc finger protein gene fused to the functional domains into cells cultured at 1·10^4 cells/well. The transfected cells were incubated at 37° C. for three days before assays.
as §1
We tested whether library nucleic acids could alter expression of a heterologous nucleic acid. SEAP (secretory alkaline phosphatase) was used as a reporter protein to test whether a ZFP can affect amount of foreign protein produced intracellularly.

293 cells = test: Cell growth of transfected 293 cells (cell count confirming MTT assay); type: cell-based, human; details: for relative cell number, average: three days after transfection, relative to parental vector
Experimental: MTT assay is used to measure cell growth. Tetrazolium MTT reduced by metabolically active cells […] color indicates the number of viable cells. MTT assay was done using a MTT assay kit (Trevigen). The MTT assay was done at three days after transfection. Briefly, 10 μl of MTT solution was added directly to the culture medium and incubated for two hours in a CO2 incubator. Then, 100 μl of detergent solution from the MTT assay kit was added and incubated in the dark for two hours before measurement of absorbance at 570 nm was measured using a Power-Wave 340× (Bio-Tek Instrument).
To count cell numbers, 293 cells were seeded at 1.5·10^4 cells/well in a 24 well plate one day before transfection. Three days after transfection with 200 ng of ZFP-coding nucleic acid or control vector plasmids, cells were washed with PBS once and suspended in 30 ul of TE (10 mM Tris 1 mM EDTA, pH 8.0) buffer and counted by hematocytometery.
To confirm the MTT assay, the cell numbers were counted after transfection of K_D10 and K_F02 in 293 cells. The result was compared to the cell number of the well transfected with the parental vector, converted to relative percentages and shown in Table 13. […] The P values for K_D10 and K_F02 are 0.001 and 0.01, respectively. For sequence information, see FIGS. 18 and 19.

Q: What does the source list for “F121_p65: ZFP QSHT-RSHR-RDHT-p65 (SEQ ID NO:20)”?
A: Norm ratio of medians (ROM) ([1]; FK506-binding protein 8 (38 kD), ID N95418): 8.66; Norm ratio of medians (ROM) ([1]; Fn14 for type I transmenmbrane protein, ID AI221536): 5.06; Norm ratio of medians (ROM) ([1]; brain-specific protein p25 alpha, ID AA133959): 5.71; Norm ratio of medians (ROM) ([1]; cadherin 13, H-cadherin (heart), ID R41787): 7.34 and 5.90; Norm ratio of medians (ROM) ([1]; cellular retinoic acid-binding protein 2, ID AA598508): 10.30; Norm ratio of medians (ROM) ([1]; cyclin D1 (PRAD1: parathyroid adenomatosis, ID AA487486)): 5.27; Norm ratio of medians (ROM) ([1]; cysteine-rich protein 2, ID AA485427): 6.71; Norm ratio of medians (ROM) ([1]; growth arrest and DNA-damage-inducible, ID AA404666): 5.55; Norm ratio of medians (ROM) ([1]; insulin-like growth factor 2, ID H59614): 17.71 and 16.88; Norm ratio of medians (ROM) ([1]; insulin-like growth factor 2, ID N54596): 14.40; Norm ratio of medians (ROM) ([1]; jun B proto-oncogene, ID N94468): 11.61; Norm ratio of medians (ROM) ([1]; ketohexokinase (fructokinase), ID T61256): 5.28; Norm ratio of medians (ROM) ([1]; lymphocyte antigen 6 complex, locus H, ID AI929550): 5.50; Norm ratio of medians (ROM) ([1]; nuclear factor of activated T-cells, ID AA679278): 9.64; Norm ratio of medians (ROM) ([1]; protein phosphatase 2, regulatory subunit, ID R59165): 9.89 and 8.60; Norm ratio of medians (ROM) ([1]; protein tyrosine phosphatase, receptor, ID R45941): 16.45; Norm ratio of medians (ROM) ([1]; putative gene product, ID H09111): 12.35; Norm ratio of medians (ROM) ([1]; tumor necrosis factor (ligand) superfamily, ID AI347622): 6.15; Norm ratio of medians (ROM) ([1]; unnamed (—), ID AA045731): 5.27; Norm ratio of medians (ROM) ([1]; zinc finger protein homologous to Zfp-36, ID R38383): 6.46

Q: With “K44_11_D01: ZFP QSHV-QSNI-QTHR1-CSNR1 with kid repression domain (SEQ ID NO:14)” as the compound, how does the “activation of SV40-SEAP (in words)” value (SV40-SEAP reporter) read?
A: showed activation of SV40-SEAP

Q: And the “SV40-SEAP, average” value (SV40-SEAP reporter)?
A: 3.66

Q: And the “activation of CMV-Luciferase (in words)” value (CMV-Luc reporter)?
A: not the CMV-Luciferase

Q: And the “CMV-Luc, average” value (CMV-Luc reporter)?
A: 0.87

Q: And the “increase of SEAP activity compared to parental plasmid (vector)” value (CMV-SEAP reporter)?
A: approximately 3 fold

Q: And the “CMV-SEAP, average” value (CMV-SEAP reporter)?
A: 3.49

Q: With `CC1=C(/C=C/C(C)=C/C=C/C(C)=C/C(=O)O)C(C)(C)CCC1` [RA, retinoic acid, reference compound] as the compound, how does the “Percentage of neurite bearing cells” value ([2]; RA 10 uM) read?
A: 14.93 ± 7.69%

Q: For `CC(=O)N1CCN(c2ccc(OCC3COC(Cn4ccnc4)(c4ccc(Cl)cc4Cl)O3)cc2)CC1` (stereo not drawn) [ketoconazole, Ketoconazole], which “ketoconazole concentration that inhibited growth of YPH499a cells” value (yeast strain YPH499a) is on record?
A: 35 µM

Q: With “Neuro1-p65: chimeric ZFP QSNR1-QSNK-CSNR1 with p65 activation domain (SEQ ID NO:2)” as the compound, how does the “Percentage of neurite bearing cells” value ([2]; No RA) read?
A: 42.39 ± 5.56%

Q: What about the “Percentage of neurite bearing cells” value ([2]; RA 10 uM) of the same compound?
A: 41.59 ± 6.46%

Q: And the neuritogenesis ([2]; cells treated with 10 μM RA)?
A: marked acceleration of neuritogenesis

Q: What about the “neuritogenesis / differentiation (length and thickness of neurites)” value ([2]; without RA) of the same compound?
A: most prominent effect on differentiation

Q: Which “activation of SV40-SEAP” value (SV40-SEAP reporter) does the source give for “K44_11_G12: ZFP QSHV-VSTR-RDNQ-QTHR1 with kid repression domain (SEQ ID NO:16)” here?
A: 2-3 fold

Q: What about the “SV40-SEAP, average” value (SV40-SEAP reporter) of the same compound?
A: 2.14

Q: What about the “activation of CMV-luciferase” value (CMV-Luc reporter) of the same compound?
A: 2-3 fold

Q: And the “CMV-Luc, average” value (CMV-Luc reporter)?
A: 2.75

Q: And the “increase of SEAP activity compared to parental plasmid (vector)” value (CMV-SEAP reporter)?
A: approximately 3 fold

Q: What about the “CMV-SEAP, average” value (CMV-SEAP reporter) of the same compound?
A: 2.82

Q: For “P_B08: ZFP QSNR1-DSNR-DSNR with p65 activation domain (SEQ ID NO:8)”, which “Absorbance (405 nm)” value ([3]; SEAP reporter activity, three days after transfection) is on record?
A: 2.40

Q: What about the “SV40-SEAP reporter, average” value ([3]; Vector (HANLS) = 1) of the same compound?
A: 16.51

Q: And the “increase of SEAP activity compared to parental plasmid” value ([3]; retest)?
A: approximately 16 fold

Q: Which results are given for “K_D10: ZFP QSHV-WSNR-WSNR-RDNQ with kid repression domain (SEQ ID NO:10)”?
A: inhibition of cell growth compared to parental vector (293 cells): approximately 3 fold; relative cell number, average (293 cells): 27.4%

Q: Which results are given for “K_F02: ZFP DSAR2-RDKR-RDER1-QTHR1 with kid repression domain (SEQ ID NO:12)”?
A: activation of cell growth compared to the control (293 cells): 2.7 fold; relative cell number, average (293 cells): 279.3%
